ChEMBL document CHEMBL4184156, “Repurposing Hsp90 inhibitors as antibiotics targeting histidine kinases” (Bioorg Med Chem Lett, 2017)
In brackets after ≈: the same amount, converted by molar mass. Activity calls are given as the source filed them. The calls are words filed in the database; no cut-off is given here.

Experiments:
[1] = target: T1, Sensor protein kinase WalK family protein (Streptococcus pneumoniae PCS8203, UniProt A0A0H2UQD0); test: Inhibition of Streptococcus pneumoniae VicK preincubated for 30 mins followed by [gamma-33P]ATP addition after 30 mins by SDS-PAGE method
T1 sequence (A0A0H2UQD0 whole entry): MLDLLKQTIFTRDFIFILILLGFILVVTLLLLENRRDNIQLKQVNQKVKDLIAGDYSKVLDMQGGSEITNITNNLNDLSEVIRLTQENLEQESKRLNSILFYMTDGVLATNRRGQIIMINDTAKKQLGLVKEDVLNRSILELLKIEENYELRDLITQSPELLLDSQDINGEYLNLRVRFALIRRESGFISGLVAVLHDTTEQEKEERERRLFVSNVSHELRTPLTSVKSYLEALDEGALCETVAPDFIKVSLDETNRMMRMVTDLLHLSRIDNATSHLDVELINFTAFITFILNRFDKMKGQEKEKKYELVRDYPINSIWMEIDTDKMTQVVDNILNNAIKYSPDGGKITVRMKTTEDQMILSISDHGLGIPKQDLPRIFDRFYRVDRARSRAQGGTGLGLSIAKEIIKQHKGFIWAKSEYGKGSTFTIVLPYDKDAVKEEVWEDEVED

[2] = tested on: Bacillus subtilis; test: Antimicrobial activity against Bacillus subtilis 3610 after 20 hrs by Mueller-Hinton Broth microdilution method; type: functional; conditions: subsp. subtilis str. NCIB 3610, 20 h
[3] = tested on: Escherichia coli; test: Antimicrobial activity against Escherichia coli DC2 after 20 hrs by Mueller-Hinton Broth microdilution method; type: functional; conditions: DC2, 20 h
[4] = Hemolytic activity against sheep RBC at 0.5 mM after 30 mins relative to control; type: ADME, cell-based, Ovis aries, Erythrocyte; conditions: sheep red blood cells (erythrocytes), read-out: Activity
[5] = target: Cell cycle histidine kinase CckA (Caulobacter vibrioides, UniProt Q9X688); test: Inhibition of recombinant Caulobacter vibrioides cell cycle histidine kinase CckA deltaTM mutant DHp domain (70 to 691 residues) expressed in Escherichia coli in presence of varying levels of ATP measured every 60 secs for 2 hrs by PK/LDH enzyme coupled assay
[6] = tested on: Staphylococcus epidermidis; test: Antimicrobial activity against Staphylococcus epidermidis ATCC 35984 after 10 hrs; type: functional; conditions: ATCC 35984, 10 h
[7] = tested on: Bacillus subtilis; test: Antibacterial activity against Bacillus subtilis YB886 after 24 hrs by broth dilution method; type: functional; conditions: YB886, 24 h
[8] = target: T2, Cell cycle histidine kinase CckA (Caulobacter vibrioides) (UniProt Q9X688); test: Inhibition of recombinant Caulobacter vibrioides cell cycle histidine kinase CckA deltaTM mutant DHp domain (70 to 691 residues) expressed in Escherichia coli at 250 uM in presence of varying levels of ATP measured every 60 secs for 2 hrs by PK/LDH enzyme coupled assay relative to control
T2 sequence (whole entry): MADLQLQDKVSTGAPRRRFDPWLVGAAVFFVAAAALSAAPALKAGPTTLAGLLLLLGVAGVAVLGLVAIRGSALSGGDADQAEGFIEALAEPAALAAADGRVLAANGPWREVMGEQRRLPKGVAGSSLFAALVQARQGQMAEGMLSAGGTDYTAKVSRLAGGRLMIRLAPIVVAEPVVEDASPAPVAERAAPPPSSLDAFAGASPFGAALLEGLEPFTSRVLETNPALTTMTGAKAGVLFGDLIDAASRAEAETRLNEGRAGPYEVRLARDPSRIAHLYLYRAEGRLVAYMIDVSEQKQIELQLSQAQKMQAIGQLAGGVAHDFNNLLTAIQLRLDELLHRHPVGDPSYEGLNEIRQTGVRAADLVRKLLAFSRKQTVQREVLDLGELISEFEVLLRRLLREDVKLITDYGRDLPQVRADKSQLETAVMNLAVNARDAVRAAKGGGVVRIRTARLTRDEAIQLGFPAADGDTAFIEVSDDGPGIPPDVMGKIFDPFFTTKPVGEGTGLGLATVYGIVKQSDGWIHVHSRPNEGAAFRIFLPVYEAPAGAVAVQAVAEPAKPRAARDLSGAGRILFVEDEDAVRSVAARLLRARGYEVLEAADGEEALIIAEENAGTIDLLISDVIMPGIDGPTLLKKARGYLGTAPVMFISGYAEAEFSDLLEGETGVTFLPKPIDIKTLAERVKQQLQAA

[9] = target: T3, Histidine protein kinase DivJ (Caulobacter vibrioides (strain ATCC 19089 / CB15) (Caulobactercrescentus)) (UniProt Q03228); test: (§1) Inhibition of recombinant Caulobacter vibrioides N-terminal His6-tagged DHp-catalytic domain DivJ (188 to 585 residues) autophosphorylation expressed in Escherichia coli BL21(DE3) at 500 uM preincubated for 10 mins followed by [gamma-32P]-ATP addition after 15 mins by phosphotransferase dot blot assay relative to control; parameters: scale not given: the % may be the effect or the level left
T3 sequence (whole entry): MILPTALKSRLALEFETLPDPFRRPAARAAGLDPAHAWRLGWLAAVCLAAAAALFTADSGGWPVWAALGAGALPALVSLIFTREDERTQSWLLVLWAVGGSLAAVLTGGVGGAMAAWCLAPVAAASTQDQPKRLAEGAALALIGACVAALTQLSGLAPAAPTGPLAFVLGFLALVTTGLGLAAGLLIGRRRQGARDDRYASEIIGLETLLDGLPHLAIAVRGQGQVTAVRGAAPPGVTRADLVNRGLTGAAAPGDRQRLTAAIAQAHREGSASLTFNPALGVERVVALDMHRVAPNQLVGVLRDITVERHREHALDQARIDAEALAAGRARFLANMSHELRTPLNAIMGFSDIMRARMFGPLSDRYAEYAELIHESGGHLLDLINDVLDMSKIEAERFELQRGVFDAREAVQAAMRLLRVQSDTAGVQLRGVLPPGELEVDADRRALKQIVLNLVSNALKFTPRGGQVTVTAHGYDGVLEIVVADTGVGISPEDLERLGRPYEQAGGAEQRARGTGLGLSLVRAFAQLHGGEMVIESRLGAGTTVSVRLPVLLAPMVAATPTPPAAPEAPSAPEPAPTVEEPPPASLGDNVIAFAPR

[10] = target: T2, Cell cycle histidine kinase CckA (Caulobacter vibrioides); test: Binding affinity to recombinant Caulobacter vibrioides cell cycle histidine kinase CckA delta 3 mutant DHp domain (190 to 562 residues) expressed in Escherichia coli assessed as change in metlting temperature at 30 uM after 2 mins by SYPRO orange dye based DSF assay
[11] = target: T4, Virulence sensor histidine kinase PhoQ (Salmonella typhimurium (strain LT2 / SGSC1412 / ATCC 700720)) (UniProt P0DM80); test: as §1, with “Salmonella typhimurium” for “Caulobacter vibrioides”, “His6-SUMO-tagged” for “His6-tagged”, “PhoQ (257” for “DivJ (188”, “487” for “585”, “30” for “15”; parameters: scale not given: the % may be the effect or the level left; conditions: Salmonella enterica subsp. enterica serovar Typhimurium
T4 sequence (whole entry): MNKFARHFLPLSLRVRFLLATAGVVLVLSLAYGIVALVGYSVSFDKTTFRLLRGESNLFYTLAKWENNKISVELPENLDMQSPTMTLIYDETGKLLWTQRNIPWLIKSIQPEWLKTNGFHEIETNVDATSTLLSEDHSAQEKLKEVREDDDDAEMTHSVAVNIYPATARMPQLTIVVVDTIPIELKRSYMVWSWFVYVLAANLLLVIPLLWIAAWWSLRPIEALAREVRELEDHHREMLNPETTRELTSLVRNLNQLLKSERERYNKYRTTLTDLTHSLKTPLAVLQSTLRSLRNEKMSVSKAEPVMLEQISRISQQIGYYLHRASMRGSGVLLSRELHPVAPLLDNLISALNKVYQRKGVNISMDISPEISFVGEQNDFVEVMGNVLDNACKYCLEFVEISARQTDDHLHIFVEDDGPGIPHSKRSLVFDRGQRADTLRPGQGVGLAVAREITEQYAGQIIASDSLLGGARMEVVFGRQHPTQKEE

[12] = tested on: Escherichia coli; test: Antibacterial activity against Escherichia coli DC2 after 24 hrs by broth dilution method; type: functional; conditions: DC2, 24 h
[13] = tested on: Caulobacter vibrioides; test: Antibacterial activity against Caulobacter crescentus NA1000 after 24 hrs by broth dilution method; type: functional; conditions: NA1000, 24 h
[14] = target: T5, Virulence sensor histidine kinase PhoQ (Salmonella typhimurium (strain LT2 / SGSC1412 / ATCC 700720), UniProt P0DM80); test: (§2) Inhibition of recombinant Salmonella typhimurium N-terminal His6-SUMO-tagged DHp-catalytic domain PhoQ (257 to 487 residues) autophosphorylation expressed in Escherichia coli BL21 (DE3) preincubated for 10 mins followed by [gamma-32P]-ATP addition after 30 mins by phosphotransferase dot blot assay; parameters: species or system Salmonella enterica subsp. enterica serovar Typhimurium
T5 sequence (P0DM80 whole entry): T4 sequence (whole entry)

[15] = target: T4, Virulence sensor histidine kinase PhoQ (Salmonella typhimurium (strain LT2 / SGSC1412 / ATCC 700720)); test: Inhibition of recombinant Salmonella typhimurium N-terminal His6-SUMO-tagged PhoQ (257 to 487 residues) expressed in Escherichia coli BL21 (DE3) assessed as enzyme aggregation at 400 uM after 30 mins by native-PAGE analysis; conditions: Salmonella enterica subsp. enterica serovar Typhimurium
[16] = target: T4, Virulence sensor histidine kinase PhoQ (Salmonella typhimurium (strain LT2 / SGSC1412 / ATCC 700720)); test: as §2, with “(DE3) at 800 uM” for “(DE3)”, “assay relative to control” for “assay”; parameters: scale not given: the % may be the effect or the level left; conditions: Salmonella enterica subsp. enterica serovar Typhimurium

Row | Compound | hemolysis at 0.5 h, 500 µM [4] [%] | IC50 [5] [µM] | MIC [7] [µM] | Activity [9] [%] | ΔTm [10] [°C] | Activity [11] [%] | MIC [12] [µM] | MIC [13] [µM] | also measured
1 | Nc1nc2ccc(Oc3ccc4nc(N)sc4c3)cc2s1 |  |  |  |  |  |  |  |  | IC50 [1]: 75 µM; MIC [2]: 49 to 64 µg/mL (≈ 156 to 204 µM); MIC [3]: 32 to 64 µg/mL (≈ 102 to 204 µM)
2 | Oc1cc(O)c(-c2n[nH]cc2-c2ccc3c(c2)OCCO3)cc1Cl | 1 | 32.3 to 44 |  |  |  |  |  |  | 
3 | O=C(O)c1ccc(-c2ccc(/C=C3\S/C(=N\c4ccccc4)N(c4ccc(F)cc4)C3=O)s2)cc1 |  |  |  |  |  |  |  |  | MIC [6]: 0.75 µg/mL (≈ 1.5 µM)
4 | CN(C)c1cc2c(cc1Sc1nc3c(N)nccc3n1CCNCC(C)(C)C)OCO2 [CUDC-305] | 3 |  | > 300 | 96 | 0.4 | 110 | 4.7 to 75 (≈ 2.08 to 33.2 µg/mL) | > 300 | inhibition [8]: 79%
5 | Cc1[nH]nc(-c2cc(Cl)c(O)cc2O)c1-c1ccc2c(c1)OCCO2 | 2 | 11.2 to 28 | 112 to 150 (≈ 40.4 to 53.8 µg/mL) | 113 | 5.3 | 35 | 75 (≈ 26.9 µg/mL) | 225 (≈ 80.7 µg/mL) | IC50 [14]: 270 µM; inhibition [15]: inactive
6 | CCc1cc(-c2n[nH]c(C)c2-c2ccc(OC)cc2)c(O)cc1O | 15 | 18.6 | 112 (≈ 36.5 µg/mL) | 118 | 4.1 | 36 | 75 (≈ 24.3 µg/mL) | 225 (≈ 73 µg/mL) | 
7 | Oc1cc(O)c(-c2[nH]ncc2-c2ccc3c(c2)OCCO3)cc1Cl |  |  | 112 to 225 (≈ 38.8 to 77.6 µg/mL) | 117 | 3.3 | 63 | 37.5 to 75 (≈ 12.9 to 25.9 µg/mL) | 150 to 225 (≈ 51.7 to 77.6 µg/mL) | Activity [16]: 48%; inhibition [15]: inactive
8 | Cc1[nH]nc(-c2cc(Cl)c(O)cc2O)c1-c1ccccc1 | 1 | 17.5 |  |  |  |  |  |  | 
9 | COc1ccc(-c2c(-c3ccc(O)cc3O)n[nH]c2C)cc1 | 2 | 46 | > 300 | 117 | 2.5 | 76 | 75 to 150 (≈ 22.2 to 44.4 µg/mL) | > 300 | 
